Experimental data published in US7973006B2, “Antibacterial agent based on fatty acid esters of hydroxy carboxylic acid acids” (Purac Biochem B.V., priority 2007, dated 2011).
Several values for one entry are separate records, joined by “and”; a condition that tells them apart may be missing. Equal entries are not always repeated.

Experiments:
[1] = system: Escherichia coli (ATCC 8739); test: Bioscreen growth rate in brain heart infusion broth with lactylate and polylysine; type: cell-based
[2] = system: Escherichia coli serotype O157:H7 (ATCC 700728); test: as above; type: cell-based
Procedure: (§1) The following cultures were used in a study: Escherichia coli serotype O157:H7 (ATCC 700728), Salmonella typhimurium (ATCC 13311) and Salmonella entiritidis (ATCC 13076). All cultures were transferred daily in screw-capped tubes containing 10 ml brain heart infusion broth. Cultures were incubated at 30° C. without agitation. Brain heart infusion broth was prepared with increasing amounts of lactylate and polylysine. The concentration range for the caprylic (C8) lactylate was as from 0 to 0.45% in 10 0.05% steps, for the capric (C10) lactylate was as from 0 to 0.09% in 10 0.01% steps, for the lauric (C12) lactylate was as from 0 to 0.009% in 10 0.001% steps and for the tetradecanoic (C14) lactylate was as from 0 to 0.009% in 10 0.001% steps. Lactylates were combined with polylysine. The concentration range for the polylysine was as from 0 to 0.0675% in 10 0.0075% steps. […] The pH of the media was adjusted to 6.1-6.2 with 1 N HCl or 1 N NaOH. Media were prepared in 10 ml quantities and sterilized by filtration. 300 μl of each medium was transferred to a panel of a sterile Bioscreen® honeycomb 100 well plate. Well plates were inoculated with 5 μl of a culture that was grown overnight in brain heart infusion broth using a sterile 5 μl repeating dispenser. Growth rates were determined with a Bioscreen® C that kinetically measures the development of turbidity by vertical photometry. The plates were incubated for 16-24 hours at 37° C., the optical density of the cultures was measured every 30 minutes at 420-580 nm using a wide band filter. The Bioscreen® measures at set time intervals the optical density of the cultures. […] The purpose of further data processing is to ascertain whether two […] act independently of each other or whether they stimulate each other in their inhibitory action (synergy) or cancel out each other inhibitory effect (antagonism). When a certain compound has no effect on an organism the specific growth rate of this organism (μ) can be expressed as a function (f) of the growth limiting substrate concentration (s) by for example the Monod equation, which reads: μ=μmax·s/(Ks+s), where μmax represents the maximum specific growth rate, s the standing concentration of the growth limiting substrate in the medium and Ks the substrate concentration where μ=0.5μmax. However, when the presence of an inhibitor P affects cell growth the function f for μ must be modified i.e. μ=f(s,p), where p represents the concentration of inhibitor P. Numerous studies of growth inhibition kinetics of bacteria have shown that many inhibitors behave as non-competitive inhibitors. This implies that only the maximum specific growth rate (μmax) value and not the affinity (Ks) is affected. Therefore the specific growth rate in the presence of inhibitor can be written as: μ=μi·s/(Ks+s), where μi is the maximal specific growth rate in the presence of a inhibitor P. The relationship between μi and μmax and the concentration of the inhibitor P was describes using the Logistic Dose Response equation, which reads: μi/μmax=1/(1+(p/p0.5)^b) (Jungbauer, A. (2001). The logistic dose response function: a robust fitting function for transition phenomena in life sciences. J. Clinical Ligand Assay 24: 270-274). In this equation p represents the concentration of inhibitor P and p0.5 the concentration of P where μi=0.5μmax; μmax is the maximum specific growth rate that is the specific growth rate in the absence of inhibitor P, b is a dimensionless quantity, which determines the relationship between μi and p. Combining the Monod and Logistic Dose Response equation it can be written as: μ=μmax(s/Ks+s)/(1+(p/p0.5)^b). In batch culture where s is usually many times higher than Ks this equation reduces to μ=μmax/(1+(p/p0.5)^b). When comparing different organisms grown under the same conditions, or the same organism grown under different conditions, it is more meaningful to use relative growth rate, rather than absolute growth rates as standards of comparison. […]

[3] = system: Salmonella entiritidis (ATCC 13076); test: as above; type: cell-based
Procedure: as §1

[4] = system: Salmonella typhimurium (ATCC 13311); test: as above; type: cell-based
Procedure: as §1

[5] = system: Salmonella Typhimurium ATCC 13311; test: Decontamination of inoculated chicken filets, surviving cell count; type: cell-based; conditions: for Salmonella Typhimurium on chicken filets: individual, 12° C.
Procedure: Salmonella Typhimurium ATCC 13311 and Escherichia coli O157:H7 ATCC 700728 were grown in sterile screw capped tubes containing Brain heart infusion broth for 18-24 hours at 30° C.
Chicken filets (150-200 g) were trimmed, vacuum packaged and stored at 4-7° C. Filets were subsequently sterilized by gamma-irradiation (average radiation dose: 12 kiloGray).
1 ml of an overnight culture of Salmonella Typhimurium in brain heart infusion both was diluted 1000 times with sterile 0.8% (w/v) NaCl and 0.1% (w/v) peptone. 0.5 ml of this diluted culture was transferred to one side of the filet. The inoculum was distributed by gently rubbing the entire surface of the filet. This was repeated for the other side of the filet. Inoculation was carried out at 6° C. Inoculated filets were rested for 60-120 min at 6° C. to allow attachment of the cells.
Chicken filets were briefly dipped and completely submersed in 1 l of a solution containing the appropriate formulation and then transferred to 400 ml Bagfilter® lateral filter bags (Interscience, St Nom, France) containing 5 ml of the appropriate formulation. Bags were vacuum-sealed and incubated at 12° C. for up to 7 days until further analysis. Time zero samples were plated within 30 min after dipping.
Surviving Salmonella Typhimurium on chicken filets were counted as follows: a sealed bag was opened and to this was added 2 times the net weight sterile dilution fluid ([…] NaCl and 0.1% (w/v) bacteriological peptone). Duplicate filets were homogenized for 1 min. in a Bagmixer® 400 paddle labblender (Interscience, St Nom, France). 50 μl of the homogenates or dilutions thereof were plated on duplicate Salmonella chromogenic agar plates (CM1007) with cefsulodin, novobiocin supplement (SR0194) (Oxoid, Basingstoke, United Kingdom) using an Eddyjet type 1.23 spiral plater (IUL Instruments, Barcelona, Spain). Plates were incubated for 24-48 hours at 30° C. and then counted. Salmonella numbers were expressed as log10 colony forming units per ml homogenate.
The compositions of the formulations that were studied are shown in Table 2. ε-Polylysine and lactylates were dissolved in demineralised water and sterilized for 20 min at 120° C.

Enterococcus faecalis = conditions: EP 1000542; cited from earlier work
Candida albicans = conditions: EP 1000542; cited from earlier work
[6] = 0.45% (w/w) in broth, pH 6.1-6.2, 37° C.
[7] = 0.0225% (w/w) in broth, pH 6.1-6.2, 37° C.

Q: Which “Observed Relative Growth Rate” value [1, 6] does the source give for `CCCCCCCC(=O)OC(C)C(=O)[O-].[Na+]` (centres unmarked) [C8-lactylate, sodium salt of octanoyllactylate] here?
A: Its value is 0.5625.

Q: What about the “Observed Relative Growth Rate” value [2, 6] of the same compound?
A: The value was 0.657.

Q: What about the “Observed Relative Growth Rate” value [3, 6] of the same compound?
A: Its value is 0.58.

Q: What about the “Observed Relative Growth Rate” value [4, 6] of the same compound?
A: Its value is 0.4763.

Q: What about the “Salmonella Typhimurium on chicken filets” value ([5]; 0.2% (w/v), day 0) of the same compound?
A: Its value is 3.85 log10 colony forming units (CFU)/ml.

Q: What about the “Salmonella Typhimurium on chicken filets” value ([5]; 0.2% (w/v), day 1) of the same compound?
A: Its value is 4.1 log10 colony forming units (CFU)/ml.

Q: What about the “Salmonella Typhimurium on chicken filets” value ([5]; 0.2% (w/v), day 2) of the same compound?
A: Its value is 4.29 log10 colony forming units (CFU)/ml.

Q: And the “Salmonella Typhimurium on chicken filets” value ([5]; 0.2% (w/v), day 5)?
A: The value was 6.27 log10 colony forming units (CFU)/ml.

Q: What about the “Salmonella Typhimurium on chicken filets” value ([5]; 0.2% (w/v), day 6) of the same compound?
A: The value was 7.35 log10 colony forming units (CFU)/ml.

Q: And the “Salmonella Typhimurium on chicken filets” value ([5]; 0.2% (w/v), day 7)?
A: The value was 7.42 log10 colony forming units (CFU)/ml.

Q: With `CCCCCCCCCC(=O)OC(C)C(=O)O` (centres unmarked) [C10-lactylate, decanoyllactylate] as the compound, how does the “Observed Relative Growth Rate” value ([1]; 0.09% (w/w) in broth) read?
A: Its value is 0.721.

Q: What about the “Observed Relative Growth Rate” value ([2]; 0.09% (w/w) in broth) of the same compound?
A: Its value is 0.766.

Q: What about the “Observed Relative Growth Rate” value ([3]; 0.09% (w/w) in broth) of the same compound?
A: Its value is 0.912.

Q: And the “Observed Relative Growth Rate” value ([4]; 0.09% (w/w) in broth)?
A: Its value is 0.904.

Q: What about the “Salmonella Typhimurium on chicken filets” value ([5]; 0.05% (w/v), day 0) of the same compound?
A: The value was 3.75 log10 colony forming units (CFU)/ml.

Q: What about the “Salmonella Typhimurium on chicken filets” value ([5]; 0.05% (w/v), day 1) of the same compound?
A: The value was 3.95 log10 colony forming units (CFU)/ml.

Q: What about the “Salmonella Typhimurium on chicken filets” value ([5]; 0.05% (w/v), day 2) of the same compound?
A: The value was 4.45 log10 colony forming units (CFU)/ml.

Q: What about the “Salmonella Typhimurium on chicken filets” value ([5]; 0.05% (w/v), day 5) of the same compound?
A: The value was 6.87 log10 colony forming units (CFU)/ml.

Q: And the “Salmonella Typhimurium on chicken filets” value ([5]; 0.05% (w/v), day 6)?
A: Its value is 6.83 log10 colony forming units (CFU)/ml.

Q: What about the “Salmonella Typhimurium on chicken filets” value ([5]; 0.05% (w/v), day 7) of the same compound?
A: Its value is 7.52 log10 colony forming units (CFU)/ml.

Q: With `CCCCCCCCCC(=O)OC(C)C(=O)OC(C)C(=O)[O-].[Na+]` (centres unmarked) [sodium salt of capryl-lactyl-lactylate] as the compound, how does the antimicrobial activity (Enterococcus faecalis) read?
A: The antimicrobial activity was “some antimicrobial activity”.

Q: What about the antimicrobial activity (Candida albicans) of the same compound?
A: Its antimicrobial activity is “some antimicrobial activity”.

Q: Which results are given for “poly(imino(2-amino-1-oxo-1,6-hexanediyl)) [ε-polylysine]”?
A: Observed Relative Growth Rate [1, 7]: 0.4935 and 0.7370 and 0.4395 and 0.68; Observed Relative Growth Rate [3, 7]: 0.9645 and 0.971 and 0.9035; Observed Relative Growth Rate [4, 7]: 0.943 and 0.9725 and 0.9520; Salmonella Typhimurium on chicken filets ([5]; 0.1% (w/v), day 0): 3.04 log10 colony forming units (CFU)/ml; Salmonella Typhimurium on chicken filets ([5]; 0.1% (w/v), day 1): 2.04 log10 colony forming units (CFU)/ml; Salmonella Typhimurium on chicken filets ([5]; 0.1% (w/v), day 2): 2.15 log10 colony forming units (CFU)/ml; Salmonella Typhimurium on chicken filets ([5]; 0.1% (w/v), day 5): 4.04 log10 colony forming units (CFU)/ml; Salmonella Typhimurium on chicken filets ([5]; 0.1% (w/v), day 6): 4.26 log10 colony forming units (CFU)/ml; Salmonella Typhimurium on chicken filets ([5]; 0.1% (w/v), day 7): 5.35 log10 colony forming units (CFU)/ml; reduction in numbers ([5]; single addition, after one day of incubation): 2 log10
